Data taken from US8592629B2, “Sulfonamide derivatives as Nav 1.7 inhibitors” (Pfizer Limited, priority 2010, dated 2013).
Where a name gives a salt, the structure may show the parent alone.

Molecular target: T1, Nav1.7 (or SCN9A) channel (Homo sapiens, UniProt Q15858)
T1 construct: expressed in transfected cells
Assay: Nav1.7 (hSCN9A) block in HEK cells, PatchXpress 7000 automated electrophysiology, estimated IC50 (EIC50)
Type: cell-based
Details: PatchXpress assay; HEK cells stably transfected with hSCN9A, voltage-clamped at V1/2 of inactivation
How it was run: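 Stable hSCN9A HEK cells voltage-clamped at empirically determined inactivation V1/2 (8 s prepulse), current activated by 20 msec step to 0 mV; % inhibition from current before vs after compound. EIC50 derived from single-point data as concentration × (100−%inhibition)/%inhibition, excluding <20% and >80% inhibition; PatchXpress unless stated.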

T1 sequence (Q15858 whole entry): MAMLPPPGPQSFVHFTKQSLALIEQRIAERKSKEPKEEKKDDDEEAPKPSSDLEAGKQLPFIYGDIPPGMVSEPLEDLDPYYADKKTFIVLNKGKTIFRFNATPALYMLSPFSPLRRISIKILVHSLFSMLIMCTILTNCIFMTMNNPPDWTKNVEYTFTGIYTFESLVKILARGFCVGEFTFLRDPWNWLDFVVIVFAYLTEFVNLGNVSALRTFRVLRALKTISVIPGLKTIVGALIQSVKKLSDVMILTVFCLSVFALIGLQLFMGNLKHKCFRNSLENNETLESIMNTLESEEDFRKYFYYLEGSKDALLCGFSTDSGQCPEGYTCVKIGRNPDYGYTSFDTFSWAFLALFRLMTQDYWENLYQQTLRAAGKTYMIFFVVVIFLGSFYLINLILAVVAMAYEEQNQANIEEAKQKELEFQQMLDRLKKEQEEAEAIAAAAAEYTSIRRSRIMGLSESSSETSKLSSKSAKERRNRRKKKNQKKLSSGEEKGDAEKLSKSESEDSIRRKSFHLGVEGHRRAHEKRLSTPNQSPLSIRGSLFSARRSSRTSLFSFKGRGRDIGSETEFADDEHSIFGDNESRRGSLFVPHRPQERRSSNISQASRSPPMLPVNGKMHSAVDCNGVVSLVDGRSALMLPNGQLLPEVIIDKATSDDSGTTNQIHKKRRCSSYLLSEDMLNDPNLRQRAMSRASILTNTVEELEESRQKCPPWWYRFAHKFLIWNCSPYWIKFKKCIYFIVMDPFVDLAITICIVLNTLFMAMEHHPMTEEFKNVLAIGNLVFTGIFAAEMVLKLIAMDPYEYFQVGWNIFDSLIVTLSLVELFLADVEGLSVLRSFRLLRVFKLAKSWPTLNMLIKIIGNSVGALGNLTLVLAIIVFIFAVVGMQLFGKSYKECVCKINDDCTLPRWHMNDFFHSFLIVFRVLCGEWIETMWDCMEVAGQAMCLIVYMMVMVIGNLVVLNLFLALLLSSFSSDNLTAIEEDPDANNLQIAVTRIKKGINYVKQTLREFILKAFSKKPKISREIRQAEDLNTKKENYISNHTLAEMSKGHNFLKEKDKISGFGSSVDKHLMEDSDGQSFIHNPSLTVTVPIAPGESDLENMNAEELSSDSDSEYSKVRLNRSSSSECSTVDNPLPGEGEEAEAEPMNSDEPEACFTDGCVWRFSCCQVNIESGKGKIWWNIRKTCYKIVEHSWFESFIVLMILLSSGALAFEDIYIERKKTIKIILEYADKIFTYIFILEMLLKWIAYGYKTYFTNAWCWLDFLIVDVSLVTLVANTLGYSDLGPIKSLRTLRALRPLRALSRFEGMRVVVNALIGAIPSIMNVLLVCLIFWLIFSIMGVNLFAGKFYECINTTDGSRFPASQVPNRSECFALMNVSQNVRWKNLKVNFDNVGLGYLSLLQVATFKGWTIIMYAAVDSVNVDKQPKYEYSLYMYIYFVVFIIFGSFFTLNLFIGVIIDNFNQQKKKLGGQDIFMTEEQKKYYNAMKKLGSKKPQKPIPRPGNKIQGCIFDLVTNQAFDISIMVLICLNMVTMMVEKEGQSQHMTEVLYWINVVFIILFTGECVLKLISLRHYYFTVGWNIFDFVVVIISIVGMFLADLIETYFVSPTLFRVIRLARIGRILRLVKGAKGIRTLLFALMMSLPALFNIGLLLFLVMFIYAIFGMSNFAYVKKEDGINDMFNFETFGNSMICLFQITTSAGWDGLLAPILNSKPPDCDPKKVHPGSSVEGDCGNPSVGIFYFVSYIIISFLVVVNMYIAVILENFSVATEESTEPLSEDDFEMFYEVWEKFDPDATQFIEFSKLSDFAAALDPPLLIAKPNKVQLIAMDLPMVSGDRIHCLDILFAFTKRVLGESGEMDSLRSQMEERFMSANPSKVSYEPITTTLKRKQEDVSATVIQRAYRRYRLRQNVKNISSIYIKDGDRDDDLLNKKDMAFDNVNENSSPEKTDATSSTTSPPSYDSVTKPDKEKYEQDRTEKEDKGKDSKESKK

Row | SMILES | IC50 [nM]
1 | CC(C)(C)Oc1ncc(Oc2cc(F)c(C(=O)NS(C)(=O)=O)cc2Cl)cc1Cl [Example 101, 4-[(6-tert-butoxy-5-chloropyridin-3-yl)oxy]-5-chloro-2-fluoro-N-(methylsulfonyl)benzamide] | 34
2 | CS(=O)(=O)NC(=O)c1ccc(Nc2cnc(OC(C(F)(F)F)C(F)(F)F)c(Cl)c2)cc1 [Example 103, 4-(5-chloro-6-(1,1,1,3,3,3-hexafluoropropan-2-yloxy)Pyridin-3-ylamino)-N-(methylsulfonyl)benzamide] | 400
3 | CS(=O)(=O)NC(=O)c1cc(Cl)c(Oc2cnc(C3CC3)c(OC(F)F)c2)cc1F [Example 106, 5-chloro-4-(6-cyclopropyl-5-(difluoromethoxy)pyridin-3-yloxy)-2-fluoro-N-(methylsulfonyl)benzamide] | 1100
4 | CC(C)c1ncc(Oc2cc(F)c(C(=O)NS(C)(=O)=O)cc2Cl)cc1Cl [Example 111, 5-Chloro-4-(5-chloro-6-isopropylpyridin-3-yloxy)-2-fluoro-N-(methylsulfonyl)benzamide] | 290
5 | CN(c1ncc(Oc2cc(F)c(C(=O)NS(C)(=O)=O)cc2F)cc1Cl)C1CC1 [Example 116, 4-({5-chloro-6-[cyclopropyl(methyl)amino]pyridin-3-yl}oxy)-2,5-difluoro-N-(methylsulfonyl)benzamide] | 980
6 | CCN(C)c1ncc(Oc2cc(F)c(C(=O)NS(C)(=O)=O)cc2F)cc1Cl [Example 117, 4-({5-chloro-6-[ethyl(methyl)amino]pyridin-3-yl}oxy)-2,5-difluoro-N-(methylsulfonyl)benzamide] | 900
7 | CCN1CCN(c2ncc(Oc3cc(F)c(C(=O)NS(C)(=O)=O)cc3F)cc2Cl)CC1 [Example 118, 4-{[5-chloro-6-(4-ethylpiperazin-1-yl)pyridin-3-yl]oxy}-2,5-difluoro-N-(methylsulfonyl)benzamide] | > 1000
8 | CS(=O)(=O)NC(=O)c1cc(F)c(Oc2cnc(N3C[C@@H](F)[C@H](F)C3)c(Cl)c2)cc1F [Example 119, 4-({5-chloro-6-[(3R,4R)-3,4-difluoropyrrolidin-1-yl]pyridin-3-yl}oxy)-2,5-difluoro-N-(methylsulfonyl)benzamide] | 400
9 | CS(=O)(=O)NC(=O)c1cc(F)c(Oc2cnc(N[C@H]3CC[C@H](F)C3)c(Cl)c2)cc1F [Example 120, 4-[(5-chloro-6-{[(1S,3S)-3-fluorocyclopentyl]amino}pyridin-3-yl)oxy]-2,5-difluoro-N-(methylsulfonyl)benzamide] | 660
10 | COCC1CCCN1c1ncc(Oc2cc(F)c(C(=O)NS(C)(=O)=O)cc2F)cc1Cl (centres unmarked) [Example 121, 4-({5-chloro-6-[2-(methoxymethyl)pyrrolidin-1-yl]pyridin-3-yl}oxy)-2,5-difluoro-N-(methylsulfonyl)benzamide] | 680
11 | CS(=O)(=O)NC(=O)c1cc(F)c(Oc2cnc(N3CCC(F)C3)c(Cl)c2)cc1F (centres unmarked) [Example 124, 4-{[5-chloro-6-(3-fluoropyrrolidin-1-yl)pyridin-3-yl]oxy}-2,5-difluoro-N-(methylsulfonyl)benzamide] | 640
12 | COC1(C)CN(c2ncc(Oc3cc(F)c(C(=O)NS(C)(=O)=O)cc3F)cc2Cl)C1 [Example 125, 4-{[5-chloro-6-(3-methoxy-3-methylazetidin-1-yl)pyridin-3-yl]oxy}-2,5-difluoro-N-(methylsulfonyl)benzamide] | 960
13 | CC1CCN(c2ncc(Oc3cc(F)c(C(=O)NS(C)(=O)=O)cc3F)cc2Cl)CC1 [Example 126, 4-{[5-chloro-6-(4-methylpiperidin-1-yl)pyridin-3-yl]oxy}-2,5-difluoro-N-(methylsulfonyl)benzamide] | 470

The remaining compounds from weak to strong by IC50, led by results:

Row | IC50 [nM] | SMILES
14 | 250 | COC(C)(C)CNc1ncc(Oc2cc(F)c(C(=O)NS(C)(=O)=O)cc2F)cc1Cl [Example 122, 4-({5-chloro-6-[(2-methoxy-2-methylpropyl)amino]pyridin-3-yl}oxy)-2,5-difluoro-N-(methylsulfonyl)benzamide]
15 | 240 | CS(=O)(=O)NC(=O)c1cc(Cl)c(Oc2cnc(-c3ccccc3)c(Cl)c2)cc1F [Example 108, 5-chloro-4-[(5-chloro-6-phenylpyridin-3-yl)oxy]-2-fluoro-N-(methylsulfonyl)benzamide]
16 | 210 | CC(C)N(C)c1ncc(Oc2cc(F)c(C(=O)NS(C)(=O)=O)cc2F)cc1Cl [Example 114, 4-({5-chloro-6-[isopropyl(methyl)amino]pyridin-3-yl}oxy)-2,5-difluoro-N-(methylsulfonyl)benzamide]
17 | 120 | CS(=O)(=O)NC(=O)c1cc(F)c(Oc2cnc(N3CCC(F)(F)C3)c(Cl)c2)cc1F [Example 123, 4-{[5-chloro-6-(3,3-difluoropyrrolidin-1-yl)pyridin-3-yl]oxy}-2,5-difluoro-N-(methylsulfonyl)benzamide]
18 | 100 | CS(=O)(=O)NC(=O)c1cc(Cl)c(Oc2cnc(C3CC3)c(OC(F)(F)F)c2)cc1F [Example 110, 5-chloro-4-(6-cyclopropyl-5-(trifluoromethoxy)pyridin-3-yloxy)-2-fluoro-N-(methylsulfonyl)benzamide]
19 | 97 | CS(=O)(=O)NC(=O)c1cc(Cl)c(Oc2cnc(C3CC(F)(F)C3)c(Cl)c2)cc1F [Example 109, 5-chloro-4-{[5-chloro-6-(3,3-difluorocyclobutyl)pyridin-3-yl]oxy}-2-fluoro-N-(methylsulfonyl)benzamide]
20 | 72 | CS(=O)(=O)NC(=O)c1cc(Cl)c(Oc2cnc(Oc3ccccc3)c(Cl)c2)cc1F [Example 100, 5-chloro-4-[(5-chloro-6-phenoxypyridin-3-yl)oxy]-2-fluoro-N-(methylsulfonyl)benzamide]
21 | 67 | CC(F)(F)Oc1cc(Oc2cc(F)c(C(=O)NS(C)(=O)=O)cc2Cl)cnc1C1CC1 [Example 104, 5-chloro-4-(6-cyclopropyl-5-(1,1-difluoroethoxy)pyridin-3-yloxy)-2-fluoro-N-(methylsulfonyl)benzamide hydrochloride salt]
22 | 54 | CS(=O)(=O)NC(=O)c1cc(F)c(Oc2cnc(NCC3CCC3)c(Cl)c2)cc1F [Example 115, 4-({5-chloro-6-[(cyclobutylmethyl)amino]pyridin-3-yl}oxy)-2,5-difluoro-N-(methylsulfonyl)benzamide]
23 | 53 | CS(=O)(=O)NC(=O)c1cc(Cl)c(Oc2cnc(C3CC3)c(C3CC3)c2)cc1F [Example 113, 5-chloro-4-[(5,6-dicyclopropylpyridin-3-yl)oxy]-2-fluoro-N-(methylsulfonyl)benzamide]
24 | 49 | CS(=O)(=O)NC(=O)c1cc(Cl)c(Oc2cnc(C3CC3)c(C(F)(F)F)c2)cc1F [Example 107, 5-chloro-4-(6-cyclopropyl-5-(trifluoromethyl)pyridin-3-yloxy)-2-fluoro-N-(methylsulfonyl)benzamide]
25 | 31 | CS(=O)(=O)NC(=O)c1cc(Cl)c(Oc2cnc(OCC(F)(F)C(F)F)c(C(F)(F)F)c2)cc1F [Example 105, 5-Chloro-2-fluoro-N-(methylsulfonyl)-4-(6-(2,2,3,3-tetrafluoropropoxy)-5-(trifluoromethyl)pyridin-3-yloxy)benzamide]
26 | 19 | CS(=O)(=O)NC(=O)c1cc(Cl)c(Oc2cnc(C3CCC3)c(Cl)c2)cc1F [Example 112, 5-chloro-4-(5-chloro-6-cyclobutylpyridin-3-yloxy)-2-fluoro-N-(methylsulfonyl)benzamide]
